Assays:
Hypoaspis aculeifer = assay: LR50; higher = less toxic; conditions: acute
Tagia sp. = conditions: for LC50: acute; for NOEC: chronic/long-term, duration: 8 weeks
Colinus virginianus = conditions: acute; oral; mortality
Anas platyrhynchos = conditions: short-term; oral; feed; mortality
Lepomis macrochirus = conditions: acute; duration: 96 hours
Apis mellifera = conditions: acute, mortality
Coturnix japonica = conditions: reproduction developmental
Rattus norvegicus = conditions: for LD50: acute, oral, mortality
Folsomia candida = conditions: chronic/long-term; duration: 28 days
[1] = reproduction developmental, reproduction

Structure (SMILES) | LR50 (Hypoaspis aculeifer) [mg/kg] | LC50 (Tagia sp.; duration: 14 days) [mg/kg] | NOEC (Tagia sp.) [mg/kg] | LD50 (Colinus virginianus) [mg/kg-day] | LC50 (Anas platyrhynchos) [mg/kg] | LC50 (Lepomis macrochirus) [µg/mL] | LD50 (Apis mellifera; dermal) [µg/piece] | LD50 (Apis mellifera; oral, unspecified) [µg/piece] | NOAEL (Coturnix japonica) [mg/kg-day] | LD50 (Rattus norvegicus) [mg/kg-day] | NOAEL (Rattus norvegicus; [1]) [mg/kg-day] | NOEL (Rattus norvegicus; [1]) [mg/kg-day] | LC50 (Tagia sp.) [mg/kg] | NOAEC (Folsomia candida) [mg/kg] | LD50 (Rattus norvegicus; F) [mg/kg-day]
COC(=O)[N-]S(=O)(=O)c1ccc(N)cc1.[Na+] [Asulam-sodium] | > 4370 | 1000 | 181 | > 1830 | > 100000 | > 91.3 | > 100 | > 124 | 65 | > 4560 | 46 | 46 |  |  | 
Nc1ccc(S(N)(=O)=O)cc1 [Sulfanilamide] |  |  | 3.75 |  |  |  |  |  |  |  |  |  | > 1000 | 50 | > 2000

Reference: EPA's ToxValDB 9.5 (doi:10.2903/j.efsa.2018.5251)
